Legend:
[1] = biological target: T1, Solute carrier organic anion transporter family member 1B1 (Homo sapiens, UniProt Q9Y6L6); details: chinese hamster, cho, 10 µM
T1 sequence (Q9Y6L6 whole entry): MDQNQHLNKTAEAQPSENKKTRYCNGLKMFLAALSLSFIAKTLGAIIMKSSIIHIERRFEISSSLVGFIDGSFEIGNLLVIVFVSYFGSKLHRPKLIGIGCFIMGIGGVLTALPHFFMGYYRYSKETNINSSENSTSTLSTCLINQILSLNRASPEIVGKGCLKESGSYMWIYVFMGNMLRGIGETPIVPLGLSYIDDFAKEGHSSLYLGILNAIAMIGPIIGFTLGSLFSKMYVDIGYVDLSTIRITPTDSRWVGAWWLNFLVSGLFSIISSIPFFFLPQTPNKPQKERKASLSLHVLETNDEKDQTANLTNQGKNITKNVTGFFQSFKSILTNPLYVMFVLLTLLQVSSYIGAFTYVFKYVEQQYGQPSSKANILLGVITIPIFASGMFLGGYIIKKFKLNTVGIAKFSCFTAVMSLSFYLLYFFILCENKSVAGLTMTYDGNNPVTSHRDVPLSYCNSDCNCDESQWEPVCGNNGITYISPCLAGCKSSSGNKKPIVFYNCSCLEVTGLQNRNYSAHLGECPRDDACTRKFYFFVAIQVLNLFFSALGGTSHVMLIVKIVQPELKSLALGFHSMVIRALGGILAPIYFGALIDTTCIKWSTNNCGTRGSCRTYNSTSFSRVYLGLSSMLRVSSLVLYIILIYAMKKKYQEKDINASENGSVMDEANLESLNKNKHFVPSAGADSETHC

[2] = biological target: T2, Solute carrier organic anion transporter family member 1B3 (Homo sapiens, UniProt Q9NPD5); details: chinese hamster, cho, 10 µM
T2 sequence (Q9NPD5 whole entry): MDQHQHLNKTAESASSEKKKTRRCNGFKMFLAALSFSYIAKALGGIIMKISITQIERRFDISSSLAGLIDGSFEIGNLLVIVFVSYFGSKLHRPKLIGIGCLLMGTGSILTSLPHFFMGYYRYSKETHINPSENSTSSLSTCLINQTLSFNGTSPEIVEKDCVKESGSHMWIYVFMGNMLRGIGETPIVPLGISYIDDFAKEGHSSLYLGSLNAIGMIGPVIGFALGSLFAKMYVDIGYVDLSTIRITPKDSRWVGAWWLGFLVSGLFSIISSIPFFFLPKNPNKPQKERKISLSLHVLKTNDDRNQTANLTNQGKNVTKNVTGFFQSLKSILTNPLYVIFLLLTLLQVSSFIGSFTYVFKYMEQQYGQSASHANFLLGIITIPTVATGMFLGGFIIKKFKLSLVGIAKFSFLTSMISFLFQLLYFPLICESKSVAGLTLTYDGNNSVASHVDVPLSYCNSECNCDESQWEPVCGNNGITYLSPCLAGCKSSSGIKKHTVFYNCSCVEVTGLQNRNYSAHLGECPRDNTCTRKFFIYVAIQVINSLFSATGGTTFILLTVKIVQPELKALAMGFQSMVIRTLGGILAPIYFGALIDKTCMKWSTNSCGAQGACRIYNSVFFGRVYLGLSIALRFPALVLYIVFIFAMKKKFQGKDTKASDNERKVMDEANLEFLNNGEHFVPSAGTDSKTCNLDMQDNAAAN

| Structure (SMILES) | residual activity [1] [%] | residual activity [2] [%] |
| --- | --- | --- |
| O=C1[C@H](CC[C@H](O)c2ccc(F)cc2)[C@@H](c2ccc(O)cc2)N1c1ccc(F)cc1 [EZETIMIBE] | 51.36 | 30.63 |
| CC(=O)OCC(CCn1cnc2cnc(N)nc21)COC(C)=O [FAMCICLOVIR] | 68.22 | 68.05 |
| COc1ccc2cc1Oc1ccc(cc1)C[C@H]1c3cc(c(OC)cc3CCN1C)Oc1c(OC)c(OC)cc3c1[C@H](C2)N(C)CC3 [FANCHININ] | 75.74 | 220.2 |
| CC(C)=CCC/C(C)=C/CC/C(C)=C/CO [FARNESOL] | 89.38 | 89.91 |
| CC(C)(OC(=O)c1ccccc1)[C@@H]1Cc2cc3ccc(=O)oc3cc2O1 [FELAMIDIN] | 115.2 | 168.9 |
| COC(=O)Nc1nc2ccc(Sc3ccccc3)cc2[nH]1 [FENBENDAZOLE] | 105.4 | 102.5 |
| O=C(O)CCC(=O)c1ccc(-c2ccccc2)cc1 [FENBUFEN] | 172.9 | 86.33 |
| CCC(C(N)=O)c1ccccc1 (stereo unspecified) [FENBUTYRAMIDE] | 101.6 | 100.4 |
| CC(NCCC(c1ccccc1)c1ccccc1)c1ccccc1.Cl (stereo unspecified) [FENDILINE HYDROCHLORIDE] | 90.27 | 114.6 |
| CC(C)OC(=O)C(C)(C)Oc1ccc(C(=O)c2ccc(Cl)cc2)cc1 [FENOFIBRATE] | 82.56 | 90.21 |
| CC(C(=O)O)c1cccc(Oc2ccccc2)c1 (stereo unspecified) [FENOPROFEN] | 160.2 | 96.37 |
| Cl.O=C1NCC2(CCN(CCc3ccccc3)CC2)O1 [FENSPIRIDE HYDROCHLORIDE] | 107.4 | 93.02 |
| COP(=S)(OC)Oc1ccc(SC)c(C)c1 [FENTHION] | 116.2 | 100.4 |
| COc1cc(/C=C/C(=O)O)ccc1O [FERULATE] | 60.24 | 82.81 |
| CCCCC[C@@H](O)[C@H]1C(=O)O[C@H](C)[C@@H](O)/C=C/C=C/C=C/C=C/C=C(\C)[C@@H](O)C[C@H](O)C[C@H](O)C[C@H](O)C[C@H](O)C[C@H](O)C[C@@H]1O [FILIPIN] | 96.46 | 93.93 |
| Cl.O=C(COc1ccc(Cl)cc1)N1CCN(Cc2ccc3c(c2)OCO3)CC1 [FIPEXIDE HYDROCHLORIDE] | 103.1 | 95 |
| Oc1ccc2c(c1)O[C@H](c1ccc(O)c(O)c1)[C@@H](O)C2 [FISETINIDOL] | 74.52 | 95.23 |
| O=c1c(O)c(-c2ccc(O)c(O)c2)oc2cc(O)ccc12 [FISETIN] | 56.32 | 108.5 |
| COC(=O)C[C@H]1C(C)(C)[C@@H](OC(C)=O)[C@@H]2CC3=C4CC(=O)O[C@@H](c5ccoc5)[C@]4(C)CC[C@@H]3[C@@]1(C)C2=O [FISSINOLIDE] | 27.44 | 51.76 |
| O=C1CC(c2ccccc2)Oc2ccccc21 (stereo unspecified) [FLAVANONE] | 76.99 | 79.68 |
| COc1cc(O)c(C(=O)/C=C/c2ccccc2)c(OC)c1 [FLAVOKAWAIN B] | 141.4 | 125.2 |
| O=c1c(O)c(-c2ccccc2)oc2ccccc12 [FLAVONOL] | 133.5 | 102.6 |
| CCC(=O)c1c(O)cc(O)cc1O [FLOPROPIONE] | 69.54 | 107.4 |
| O=c1[nH]c(=O)n([C@H]2C[C@H](O)[C@@H](CO)O2)cc1F [FLOXURIDINE] | 116.3 | 109.2 |

| Structure (SMILES) | residual activity [1] [%] | residual activity [2] [%] |
| --- | --- | --- |
| OC(Cn1cncn1)(Cn1cncn1)c1ccc(F)cc1F [FLUCONAZOLE] | 86.64 | 106.5 |
| CC(=O)OCC(=O)[C@@]1(O)CC[C@H]2[C@@H]3CCC4=CC(=O)CC[C@]4(C)[C@@]3(F)[C@@H](O)C[C@@]21C [FLUDROCORTISONE ACETATE] | 36.29 | 71.2 |
| O=C(O)c1ccccc1Nc1cccc(C(F)(F)F)c1 [FLUFENAMIC ACID] | 211.3 | 64.03 |
| CC1CCc2cc(F)cc3c(=O)c(C(=O)O)cn1c23 (stereo unspecified) [FLUMEQUINE] | 74.99 | 107 |
| C[C@@H]1C[C@H]2[C@@H]3C[C@H](F)C4=CC(=O)C=C[C@]4(C)[C@@]3(F)[C@@H](O)C[C@]2(C)[C@@]1(O)C(=O)COC(=O)C(C)(C)C [FLUMETHASONE PIVALATE] | 98.41 | 107.9 |
| C[C@@H]1C[C@H]2[C@@H]3C[C@H](F)C4=CC(=O)C=C[C@]4(C)[C@@]3(F)[C@@H](O)C[C@]2(C)[C@@]1(O)C(=O)CO [FLUMETHASONE] | 84.89 | 135.8 |
| Cl.Cl.Fc1ccc(C(c2ccc(F)cc2)N2CCN(C/C=C/c3ccccc3)CC2)cc1 [FLUNARIZINE HYDROCHLORIDE] | 117.4 | 102.7 |
| CC1(C)O[C@@H]2C[C@H]3[C@@H]4C[C@H](F)C5=CC(=O)C=C[C@]5(C)[C@H]4[C@@H](O)C[C@]3(C)[C@]2(C(=O)CO)O1 [FLUNISOLIDE] | 55.07 | 77.49 |
| CC(=O)[C@@]1(O)CC[C@H]2[C@@H]3C[C@H](C)C4=CC(=O)C=C[C@]4(C)[C@@]3(F)[C@@H](O)C[C@@]21C [FLUOROMETHOLONE] | 85.71 | 105.7 |
| O=c1[nH]cc(F)c(=O)[nH]1 [FLUOROURACIL] | 86.84 | 91.17 |
| CNCCC(Oc1ccc(C(F)(F)F)cc1)c1ccccc1 (stereo unspecified) [FLUOXETINE] | 55.32 | 77.22 |
| CC1(C)O[C@@H]2C[C@H]3[C@@H]4C[C@H](F)C5=CC(=O)CC[C@]5(C)[C@H]4[C@@H](O)C[C@]3(C)[C@]2(C(=O)CO)O1 [FLURANDRENOLIDE] | 129.2 | 99.16 |
| CC(C(=O)O)c1ccc(-c2ccccc2)c(F)c1 (stereo unspecified) [FLURBIPROFEN] | 227 | 98.28 |
| CC(C)C(=O)Nc1ccc([N+](=O)[O-])c(C(F)(F)F)c1 [FLUTAMIDE] | 130.9 | 133.6 |
| Nc1nc2ncc(CNc3ccc(C(=O)N[C@@H](CCC(=O)O)C(=O)O)cc3)nc2c(=O)[nH]1 [FOLIC ACID] | 98.4 | 109.7 |
| C[C@]12CCC(=O)C(O)=C1CC[C@@H]1[C@@H]2CC[C@]2(C)C(=O)CC[C@@H]12 [FORMESTANE] | 81.74 | 106.1 |
| COc1ccc(-c2coc3cc(O)ccc3c2=O)cc1 [FORMONONETIN] | 169.8 | 114.7 |
| O=C([O-])P(=O)([O-])[O-].[Na+].[Na+].[Na+] [FOSCARNET SODIUM] | 113 | 110.8 |
| O=C(O)c1ccccc1OP(=O)(O)O [FOSFOSAL] | 68.68 | 92.75 |
| COc1cc2ccc(=O)oc2c(O)c1O [FRAXETIN] | 68.87 | 106.2 |
| COc1cc2ccc(=O)oc2c(OC)c1OC [FRAXIDIN METHYL ETHER] | 92.39 | 92.79 |
| C[C@H]1C(=O)CC[C@@H]2[C@]1(C)CC[C@H]1[C@@]2(C)CC[C@@]2(C)[C@@H]3CC(C)(C)CC[C@]3(C)CC[C@]12C [FRIEDELINE] | 112 | 90.31 |
| O=C1OCCN1/N=C/c1ccc([N+](=O)[O-])o1 [FURAZOLIDONE] | 91.17 | 94.52 |
| NS(=O)(=O)c1cc(C(=O)O)c(NCc2ccco2)cc1Cl [FUROSEMIDE] | 86.58 | 90.27 |
